In PubChem BioAssay (NCI):
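A five-concentration, 48-hour dose response in 96-well plates underlies each endpoint, interpolated linearly between surrounding concentrations. At the GI50, growth is halved. TGI is the concentration that stops growth completely.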

Key:
Assay in all cases: growth of human tumour cells (NCI), 48 h
HCT-15 colon = tested on: HCT-15 colon
HCC-2998 colon = tested on: HCC-2998 colon
MOLT-4 leukemia = tested on: MOLT-4 leukemia
U251 CNS = tested on: U251 CNS
TK-10 renal = tested on: TK-10 renal
ACHN renal = tested on: ACHN renal
COLO 205 colon = tested on: COLO 205 colon
NCI-H226 lung = tested on: NCI-H226 lung
SN12C renal = tested on: SN12C renal
MDA-MB-231 breast = tested on: MDA-MB-231 breast
SW-620 colon = tested on: SW-620 colon
SF-268 CNS = tested on: SF-268 CNS
M14 melanoma = tested on: M14 melanoma
UO-31 renal = tested on: UO-31 renal
SK-OV-3 ovarian = tested on: SK-OV-3 ovarian
IGROV1 ovarian = tested on: IGROV1 ovarian
T-47D breast = tested on: T-47D breast
NCI-H522 lung = tested on: NCI-H522 lung
CCRF-CEM leukemia = tested on: CCRF-CEM leukemia
HL-60(TB) leukemia = tested on: HL-60(TB) leukemia
UACC-62 melanoma = tested on: UACC-62 melanoma
OVCAR-5 ovarian = tested on: OVCAR-5 ovarian
RPMI-8226 leukemia = tested on: RPMI-8226 leukemia
CAKI-1 renal = tested on: CAKI-1 renal
SF-539 CNS = tested on: SF-539 CNS
NCI/ADR-RES ovarian = tested on: NCI/ADR-RES ovarian
SNB-75 CNS = tested on: SNB-75 CNS
RXF 393 renal = tested on: RXF 393 renal
K-562 leukemia = tested on: K-562 leukemia
SK-MEL-5 melanoma = tested on: SK-MEL-5 melanoma
MDA-MB-468 breast = tested on: MDA-MB-468 breast
MDA-MB-435 = tested on: MDA-MB-435
HS 578T breast = tested on: HS 578T breast
NCI-H23 lung = tested on: NCI-H23 lung
PC-3 prostate = tested on: PC-3 prostate
SK-MEL-28 melanoma = tested on: SK-MEL-28 melanoma
DU-145 prostate = tested on: DU-145 prostate
HOP-62 NSCLC = tested on: HOP-62 NSCLC
OVCAR-3 ovarian = tested on: OVCAR-3 ovarian
SNB-19 CNS = tested on: SNB-19 CNS
SR leukemia = tested on: SR leukemia
HOP-92 NSCLC = tested on: HOP-92 NSCLC
UACC-257 melanoma = tested on: UACC-257 melanoma
KM12 colon = tested on: KM12 colon
SK-MEL-2 melanoma = tested on: SK-MEL-2 melanoma
NCI-H460 lung = tested on: NCI-H460 lung
A498 renal = tested on: A498 renal
OVCAR-8 ovarian = tested on: OVCAR-8 ovarian
LOX IMVI melanoma = tested on: LOX IMVI melanoma
BT-549 breast = tested on: BT-549 breast
HCT-116 colon = tested on: HCT-116 colon
MCF7 breast = tested on: MCF7 breast
SF-295 CNS = tested on: SF-295 CNS
A549 NSCLC = tested on: A549 NSCLC
HT29 colon = tested on: HT29 colon
OVCAR-4 ovarian = tested on: OVCAR-4 ovarian
786-0 renal = tested on: 786-0 renal
MALME-3M melanoma = tested on: MALME-3M melanoma
EKVX NSCLC = tested on: EKVX NSCLC

COc1ccc2[nH]c(=O)c(CSc3ccccc3Nc3nccc(-c4ccc(C(F)(F)F)cc4)n3)cc2c1
GI50 (HCT-15 colon): 4.69 µM
TGI (HCT-15 colon): 16.7 µM
GI50 (HCC-2998 colon): 5.27 µM
TGI (HCC-2998 colon): 18.1 µM
GI50 (MOLT-4 leukemia): 3.59 µM
TGI (MOLT-4 leukemia): 15.7 µM
GI50 (U251 CNS): 10.5 µM
TGI (U251 CNS): 22.3 µM
GI50 (TK-10 renal): 17.4 µM
TGI (TK-10 renal): 31.2 µM
GI50 (ACHN renal): 5 µM
TGI (ACHN renal): 16.9 µM
GI50 (COLO 205 colon): 11.1 µM
TGI (COLO 205 colon): 23.1 µM
GI50 (NCI-H226 lung): 4.76 µM
TGI (NCI-H226 lung): 18.8 µM
GI50 (SN12C renal): 3.74 µM
TGI (SN12C renal): 13.1 µM
GI50 (MDA-MB-231 breast): 11.1 µM
TGI (MDA-MB-231 breast): 23.1 µM
GI50 (SW-620 colon): 5.43 µM
TGI (SW-620 colon): 18.2 µM
GI50 (SF-268 CNS): 5.15 µM
TGI (SF-268 CNS): 18.2 µM
GI50 (M14 melanoma): 11.2 µM
TGI (M14 melanoma): 23.2 µM
GI50 (UO-31 renal): 4.5 µM
TGI (UO-31 renal): 18.1 µM
GI50 (SK-OV-3 ovarian): 15.8 µM
TGI (SK-OV-3 ovarian): 29.3 µM
GI50 (IGROV1 ovarian): 9.67 µM
TGI (IGROV1 ovarian): 21.4 µM
GI50 (T-47D breast): 5.66 µM
TGI (T-47D breast): 20.3 µM
GI50 (NCI-H522 lung): 3.82 µM
TGI (NCI-H522 lung): 16.2 µM
GI50 (CCRF-CEM leukemia): 3.84 µM
TGI (CCRF-CEM leukemia): 18.5 µM
GI50 (HL-60(TB) leukemia): 8.6 µM
TGI (HL-60(TB) leukemia): 28.2 µM
GI50 (UACC-62 melanoma): 11.8 µM
TGI (UACC-62 melanoma): 24 µM
GI50 (OVCAR-5 ovarian): 13 µM
TGI (OVCAR-5 ovarian): 25.7 µM
GI50 (RPMI-8226 leukemia): 3.27 µM
TGI (RPMI-8226 leukemia): 15.4 µM
GI50 (CAKI-1 renal): 9.2 µM
TGI (CAKI-1 renal): 21.2 µM
GI50 (SF-539 CNS): 10.3 µM
TGI (SF-539 CNS): 21.9 µM
GI50 (NCI/ADR-RES ovarian): 4.32 µM
TGI (NCI/ADR-RES ovarian): 17.5 µM
GI50 (SNB-75 CNS): 12.5 µM
TGI (SNB-75 CNS): 25.5 µM
GI50 (RXF 393 renal): 3.03 µM
TGI (RXF 393 renal): 8.62 µM
GI50 (K-562 leukemia): 4.46 µM
TGI (K-562 leukemia): 21.6 µM
GI50 (SK-MEL-5 melanoma): 10.5 µM
TGI (SK-MEL-5 melanoma): 22.2 µM
GI50 (MDA-MB-468 breast): 2.65 µM
TGI (MDA-MB-468 breast): 10.2 µM
GI50 (MDA-MB-435): 8.95 µM
TGI (MDA-MB-435): 21.1 µM
GI50 (HS 578T breast): 13.2 µM
TGI (HS 578T breast): 36.5 µM
GI50 (NCI-H23 lung): 6.28 µM
TGI (NCI-H23 lung): 19.3 µM
GI50 (PC-3 prostate): 3.2 µM
TGI (PC-3 prostate): 12.6 µM
GI50 (SK-MEL-28 melanoma): 11.8 µM
TGI (SK-MEL-28 melanoma): 24.1 µM
GI50 (DU-145 prostate): 8.89 µM
TGI (DU-145 prostate): 21 µM
GI50 (HOP-62 NSCLC): 15.4 µM
TGI (HOP-62 NSCLC): 28.7 µM
GI50 (OVCAR-3 ovarian): 3.48 µM
TGI (OVCAR-3 ovarian): 15.2 µM
GI50 (SNB-19 CNS): 13.5 µM
TGI (SNB-19 CNS): 26.3 µM
GI50 (SR leukemia): 2.91 µM
TGI (SR leukemia): 11.1 µM
GI50 (HOP-92 NSCLC): 2.2 µM
TGI (HOP-92 NSCLC): 17.3 µM
GI50 (UACC-257 melanoma): 13 µM
TGI (UACC-257 melanoma): 25.7 µM
GI50 (KM12 colon): 5.6 µM
TGI (KM12 colon): 17.9 µM
GI50 (SK-MEL-2 melanoma): 10.8 µM
TGI (SK-MEL-2 melanoma): 22.7 µM
GI50 (NCI-H460 lung): 4.05 µM
TGI (NCI-H460 lung): 14.5 µM
GI50 (A498 renal): 13.8 µM
TGI (A498 renal): 26.7 µM
GI50 (OVCAR-8 ovarian): 9.59 µM
TGI (OVCAR-8 ovarian): 21.4 µM
GI50 (LOX IMVI melanoma): 3.06 µM
TGI (LOX IMVI melanoma): 11.5 µM
GI50 (BT-549 breast): 6.57 µM
TGI (BT-549 breast): 19.7 µM
GI50 (HCT-116 colon): 3.14 µM
TGI (HCT-116 colon): 10.6 µM
GI50 (MCF7 breast): 2.97 µM
TGI (MCF7 breast): 11 µM
GI50 (SF-295 CNS): 10.1 µM
TGI (SF-295 CNS): 21.6 µM
GI50 (A549 NSCLC): 5.28 µM
TGI (A549 NSCLC): 18.5 µM
GI50 (HT29 colon): 3.64 µM
TGI (HT29 colon): 12.7 µM
GI50 (OVCAR-4 ovarian): 3.42 µM
TGI (OVCAR-4 ovarian): 13.7 µM
GI50 (786-0 renal): 6.43 µM
TGI (786-0 renal): 19.1 µM
GI50 (MALME-3M melanoma): 12 µM
TGI (MALME-3M melanoma): 24.3 µM
GI50 (EKVX NSCLC): 10.3 µM
TGI (EKVX NSCLC): 22.4 µM
